{"source": "patent US11213506B2", "about": "“Combination therapy for the treatment or prevention of tumours” (QBIOTICS PTY LTD, priority 2017, dated 2022)", "key": {"[1]": {"test_system": "A431 cells", "experiment": "Lactate dehydrogenase (LDH) release assay", "assay_type": "cell-based, human", "conditions": "300 μM and 500 μM", "procedure": "(§1) A431 (human epidermoid carcinoma), MM649 (human melanoma), B16-OVA (B16-F10 mouse melanoma cell line stably transfected with chicken ovalbumin), MM415 (human melanoma) and FaDu (human hypopharyngeal carcinoma) cells were cultured in RPMI-1640, 10% FCS (complete medium) at 37° C., 5% CO2 in a humidified incubator. All cell lines used in this study were confirmed as mycoplasma negative using MycoAlert (Lonza). STR profiling was also performed to confirm the identity of the human cell lines used.\n(§2) Measuring the release of LDH is a well-recognised assay to assess plasma membrane permeabilisation and detect cell death by necrosis (Chan et al. 2013). Three cell lines (A431, MM649 and B16-OVA) were used in these assays. Cells were plated at a density of 10,000 cells per well into clear 96-well plates (Corning, #3595; 100 μl of complete media) and the resultant plates incubated overnight as previously detailed. The following day, media was aspirated from each well and 50 μl of fresh medium was inserted. Stock solutions of Compound 1 were diluted to 2× final assay concentrations (1 mM and 600 μM) and 50 μl of these dilutions added to the required wells. […] OD490 nm and OD690 nm readings were recorded for each sample using a Hybrid Synergy H4 plate reader. Absorbance readings from drug treated samples were normalized to detergent treated controls to determine the % LDH release per well."}, "[2]": {"test_system": "MM649 cells", "experiment": "Lactate dehydrogenase (LDH) release assay", "assay_type": "cell-based, human", "conditions": "300 μM and 500 μM", "procedure": "as §1, §2"}}, "data": [{"smiles": "C/C=C(\\C)C(=O)O[C@@H]1[C@@H](C)[C@@]2(O)[C@H]([C@@H]3C(C)(C)[C@]13OC(=O)[C@@H](C)CC)[C@@H]1O[C@]1(CO)[C@@H](O)[C@]1(O)C(=O)C(C)=C[C@H]12", "note": "[Compound 1, 12-tigloyl-13-(2-methylbutanoyl)-6,7-epoxy-4,5,9,12,13,20-hexahydroxy-1-tiglien-3-one]", "values": [{"measurement": "LDH release compared to the controls", "setting": "[1]", "result": "significant release of LDH"}, {"measurement": "LDH release compared to the controls", "setting": "[2]", "result": "significant release of LDH"}]}]}
